The results in this text go back to patent US11242334B2, “Heterocyclic compounds as kinase inhibitors, compositions comprising the heterocyclic compound, and methods of use thereof” (JS INNOPHARM (SHANGHAI) LTD, priority 2017, dated 2022).

What is called IC50 is the concentration that inhibits the measured activity by half. The low end stands for higher potency, the high end for lower potency.

Some results are limits rather than exact numbers.

Assay [1] concerns Colo205 cell line. Nature of the assay: Colo205 cell proliferation assay (MTT assay, WST-8 readout). The class given is cell-based. The conditions noted are these: Homo sapiens; IC50 values of growth inhibition in Colo 205 cells; 72 hours. In outline:
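Growth-inhibition IC50 was derived from WST-8 absorbance at 450 nm (2 h development) after 72 h compound exposure at 37° C. Exposure used final 50 μM–0.005 μM compound in 0.5% DMSO. Colo205 cells had been plated at 5,000/well in RPMI-1640 plus 10% FBS and allowed 24 h to attach.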
In general terms: Formazan colour is commonly taken as a measure of viable cells.

Assay [2] addresses T1, human ERK2 (Homo sapiens, UniProt P28482).
T1 construct: recombinantly expressed as GST-tagged full-length protein purified from E. coli; GST; purchased Invitrogen PV3311; host or cells: E. coli
Nature of the assay: LanthaScreen TR-FRET enzymatic assay, ERK2. The conditions noted are these: IC50 values of ERK2 biochemical activity; 5 μM ATP, 400 nM ATF2-GFP substrate. In outline:
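IC50 values were fitted from percent of DMSO control using a 520/495 nm TR-FRET ratio with terbium anti-pATF2 (pThr71), read after an EDTA stop. The kinase reaction lasted one hour at room temperature, following 15-min compound pre-treatment. It contained 5 μM ATP, 400 nM ATF2-GFP substrate and 20 ng/ml in vitro-activated GST-ERK2.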

T1 sequence (P28482 whole entry): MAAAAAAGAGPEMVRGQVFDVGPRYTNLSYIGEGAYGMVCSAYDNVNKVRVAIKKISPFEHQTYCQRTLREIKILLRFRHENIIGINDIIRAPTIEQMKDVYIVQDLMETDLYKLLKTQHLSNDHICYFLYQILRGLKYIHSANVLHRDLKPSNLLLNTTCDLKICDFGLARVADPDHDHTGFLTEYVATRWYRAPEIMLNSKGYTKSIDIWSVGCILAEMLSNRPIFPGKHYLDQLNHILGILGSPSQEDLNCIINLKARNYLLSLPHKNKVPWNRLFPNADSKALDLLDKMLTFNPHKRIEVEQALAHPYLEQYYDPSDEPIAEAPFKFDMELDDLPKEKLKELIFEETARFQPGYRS

As to `Cn1cc(-c2n[nH]c3ccc(-c4ccn([C@H](CO)c5ccc(F)c(Cl)c5)c(=O)c4)cc23)cn1` [Example 37, (S)-1-(1-(3-chloro-4-fluorophenyl)-2-hydroxyethyl)-4-(3-(1-methyl-1H-pyrazol-4-yl)-1H-indazol-5-yl)pyridin-2(1H)-one], the IC50 was at most 500 nM in assay [1] and below 10 nM in assay [2].
The matching figures for `CC(C)Oc1ccc(-c2n[nH]c3ccc(-c4ccn([C@H](CO)c5cccc(Cl)c5)c(=O)c4)cc23)cn1` [Example 17, (S)-1-(1-(3-chlorophenyl)-2-hydroxyethyl)-4-(3-(6-isopropoxypyridin-3-yl)-1H-indazol-5-yl)pyridin-2(1H)-one]: 500 to 1000 nM and below 10 nM.
The matching figures for `Cc1cc(-c2n[nH]c3ccc(-c4ccn(Cc5cccc(Cl)c5F)c(=O)c4)cc23)ccn1` [Example 63, 1-(3-chloro-2-fluorobenzyl)-4-(3-(2-methylpyridin-4-yl)-1H-indazol-5-yl)pyridin-2(1H)-one]: 500 to 1000 nM and below 10 nM.
The matching figures for `Cc1cc(-c2n[nH]c3ccc(-c4ccn(Cc5ccnc(C(F)(F)F)c5)c(=O)c4)cc23)ccn1` [Example 89, 4-(3-(2-methylpyridin-4-yl)-1H-indazol-5-yl)-1-((2-(trifluoromethyl)pyridin-4-yl)methyl)pyridin-2(1H)-one]: at most 500 nM and below 10 nM.
Regarding `CNc1n[nH]c2ccc(-c3ccn([C@H](CO)c4cccc(Cl)c4)c(=O)c3)cc12` [Example 5, (S)-1-(1-(3-chlorophenyl)-2-hydroxyethyl)-4-(3-(methyl-amino)-1H-indazol-5-yl)pyridin-2(1H)-one], the results for the IC50 in assay [1] and in assay [2] were 1000 to 5000 nM and 10 to 50 nM, respectively.
The matching figures for `Cc1cc(-c2n[nH]c3ccc(-c4ccn(Cc5ccc(Br)c(F)c5)c(=O)c4)cc23)ccn1` [Example 69, 1-(4-bromo-3-fluorobenzyl)-4-(3-(2-methylpyridin-4-yl)-1H-indazol-5-yl)pyridin-2(1H)-one]: 500 to 1000 nM and below 10 nM.
The matching figures for `Cn1cc(-c2n[nH]c3ccc(-c4ccn(Cc5ccc(F)c(Cl)c5)c(=O)c4)cc23)cn1` [Example 84, 1-(3-chloro-4-fluorobenzyl)-4-(3-(1-methyl-1H-pyrazol-4-yl)-1H-indazol-5-yl)pyridin-2(1H)-one]: at most 500 nM and below 10 nM.
The matching figures for `Cc1cc(-c2n[nH]c3ccc(-c4ccn(Cc5cccc(F)c5F)c(=O)c4)cc23)ccn1` [Example 81, 1-(2,3-difluorobenzyl)-4-(3-(2-methylpyridin-4-yl)-1H-indazol-5-yl)pyridin-2(1H)-one]: at most 500 nM and below 10 nM.
On to `Cc1cc(-c2n[nH]c3ccc(-c4ccn([C@H](CO)c5cccc(I)c5)c(=O)c4)cc23)ccn1` [Example 49, (S)-1-(2-hydroxy-1-(3-iodophenyl)ethyl)-4-(3-(2-methylpyridin-4-yl)-1H-indazol-5-yl)pyridin-2(1H)-one], for which the results for the IC50 in assay [1] and in assay [2] were at most 500 nM and below 10 nM, respectively.
For the compound `CCOc1ccc(-c2n[nH]c3ncc(-c4ccn([C@H](CO)c5cc(F)cc(Br)c5)c(=O)c4)cc23)cn1` [Example 110, (S)-1-(1-(3-bromo-5-fluorophenyl)-2-hydroxyethyl)-4-(3-(6-ethoxypyridin-3-yl)-1H-pyrazolo[3,4-b]pyridin-5-yl)pyridin-2(1H)-one], the IC50 is 500 to 1000 nM in assay [1] and below 10 nM in assay [2].
Consider `Cc1cc(-c2n[nH]c3ccc(-c4ccn(Cc5cccc(Cl)c5)c(=O)c4)cc23)ccn1` [Example 53, 1-(3-chlorobenzyl)-4-(3-(2-methylpyridin-4-yl)-1H-indazol-5-yl)pyridin-2(1H)-one], for which the values for the IC50 in assay [1] and in assay [2] were 500 to 1000 nM and below 10 nM, respectively.
The matching figures for `CC(c1cc(F)cc(Br)c1)n1ccc(-c2ccc3[nH]nc(C4CCOCC4)c3c2)cc1=O` (stereo not drawn) [Example 146, 1-(1-(3-bromo-5-fluorophenyl)ethyl)-4-(3-(tetrahydro-2H-pyran-4-yl)-1H-indazol-5-yl)pyridin-2(1H)-one]: 1000 to 5000 nM and below 10 nM.
The matching figures for `CCc1n[nH]c2ccc(-c3ccn([C@H](CO)c4cccc(Cl)c4)c(=O)c3)cc12` [Example 23, (S)-1-(1-(3-chlorophenyl)-2-hydroxyethyl)-4-(3-ethyl-1H-indazol-5-yl)pyridin-2(1H)-one]: 1000 to 5000 nM and 50 to 100 nM.
The matching figures for `CC(C)Oc1cc(-c2n[nH]c3ccc(-c4ccn([C@H](CO)c5cccc(Cl)c5)c(=O)c4)cc23)ccn1` [Example 19, (S)-1-(1-(3-chlorophenyl)-2-hydroxyethyl)-4-(3-(2-isopropoxypyridin-4-yl)-1H-indazol-5-yl)pyridin-2(1H)-one]: 1000 to 5000 nM and below 10 nM.
Consider `COc1ccc(-c2n[nH]c3ccc(-c4ccn([C@H](CO)c5cc(F)cc(Br)c5)c(=O)c4)cc23)cn1` [Example 103, (S)-1-(1-(3-bromo-5-fluorophenyl)-2-hydroxyethyl)-4-(3-(6-methoxypyridin-3-yl)-1H-indazol-5-yl)pyridin-2(1H)-one], for which the IC50 in assay [1] is at most 500 nM; in assay [2], below 10 nM.
The matching figures for `Cn1cc(-c2n[nH]c3ccc(-c4ccn(Cc5ccnc(C(F)(F)F)c5)c(=O)c4)cc23)cn1` [Example 95, 4-(3-(1-methyl-1H-pyrazol-4-yl)-1H-indazol-5-yl)-1-((2-(trifluoromethyl)pyridin-4-yl)methyl)pyridin-2(1H)-one]: 1000 to 5000 nM and below 10 nM.
With `Cc1cc(-c2n[nH]c3ccc(-c4ccn(Cc5cccc(Br)c5F)c(=O)c4)cc23)ccn1` [Example 75, 1-(3-bromo-2-fluorobenzyl)-4-(3-(2-methylpyridin-4-yl)-1H-indazol-5-yl)pyridin-2(1H)-one], the values for the IC50 in assay [1] and in assay [2] were 500 to 1000 nM and below 10 nM, respectively.
For `Cn1cc(-c2n[nH]c3ccc(-c4ccn(Cc5cc(F)cc(Br)c5)c(=O)c4)cc23)cn1` [Example 86, 1-(3-bromo-5-fluorobenzyl)-4-(3-(1-methyl-1H-pyrazol-4-yl)-1H-indazol-5-yl)pyridin-2(1H)-one], the half-maximal inhibitory concentration (IC50) in assay [1] is at most 500 nM; in assay [2], below 10 nM.
The matching figures for `Cc1cc(-c2n[nH]c3ccc(-c4ccn(Cc5ccccc5)c(=O)c4)cc23)ccn1` [Example 60, 1-benzyl-4-(3-(2-methylpyridin-4-yl)-1H-indazol-5-yl)pyridin-2(1H)-one]: 500 to 1000 nM and below 10 nM.
The matching figures for `Cc1cc(-c2n[nH]c3ccc(-c4ccn([C@H](CO)c5cc(Cl)ccc5F)c(=O)c4)cc23)ccn1` [Example 28, (S)-1-(1-(5-chloro-2-fluorophenyl)-2-hydroxyethyl)-4-(3-(2-methylpyridin-4-yl)-1H-indazol-5-yl)pyridin-2(1H)-one]: at most 500 nM and below 10 nM.
Regarding `CNCC(c1ccc(F)c(Cl)c1)n1ccc(-c2ccc3[nH]nc(-c4ccnc(C)c4)c3c2)cc1=O` (stereo not drawn) [Example 107, 1-(1-(3-chloro-4-fluorophenyl)-2-(methylamino)ethyl)-4-(3-(2-methylpyridin-4-yl)-1H-indazol-5-yl)pyridin-2(1H)-one], the results for the IC50 in assay [1] and in assay [2] were at most 500 nM and below 10 nM, respectively.
As for `CC(c1ccc(F)c(Cl)c1)n1ccc(-c2ccc3[nH]nc(-c4cnn(C)c4)c3c2)cc1=O` (stereo not drawn) [Example 97, 1-(1-(3-chloro-4-fluorophenyl)ethyl)-4-(3-(1-methyl-1H-pyrazol-4-yl)-1H-indazol-5-yl)pyridin-2(1H)-one], the IC50 in assay [1] is 1000 to 5000 nM; in assay [2], 10 to 50 nM.
For the compound `Cc1cc(-c2n[nH]c3ccc(-c4ccn(Cc5cc(F)cc(F)c5)c(=O)c4)cc23)ccn1` [Example 79, 1-(3,5-difluorobenzyl)-4-(3-(2-methylpyridin-4-yl)-1H-indazol-5-yl)pyridin-2(1H)-one], the IC50 in assay [1] is 500 to 1000 nM; in assay [2], below 10 nM.
The matching figures for `Cc1cc(-c2n[nH]c3ccc(-c4ccn(Cc5cc(F)cc(C(F)(F)F)c5)c(=O)c4)cc23)ccn1` [Example 73, 1-(3-fluoro-5-(trifluoromethyl)benzyl)-4-(3-(2-methylpyridin-4-yl)-1H-indazol-5-yl)pyridin-2(1H)-one]: 500 to 1000 nM and below 10 nM.
The matching figures for `Cc1cc(-c2n[nH]c3ccc(-c4ccn([C@H](CO)c5cccc(Cl)c5)c(=O)c4)nc23)ccn1` [Example 9, (S)-1-(1-(3-chlorophenyl)-2-hydroxyethyl)-4-(3-(2-methyl-pyridin-4-yl)-1H-pyrazolo[4,3-b]pyridin-5-yl)pyridin-2(1H)-one]: 500 to 1000 nM and below 10 nM.
The matching figures for `O=c1cc(-c2ccc3[nH]nc(-c4ccc(F)cc4)c3c2)ccn1[C@H](CO)c1cc(F)cc(Br)c1` [Example 111, (S)-1-(1-(3-bromo-5-fluorophenyl)-2-hydroxyethyl)-4-(3-(4-fluorophenyl)-1H-indazol-5-yl)pyridin-2(1H)-one]: at most 500 nM and below 10 nM.
Take `Cc1nn(C)cc1-c1n[nH]c2ccc(-c3ccn([C@H](CO)c4cccc(Cl)c4)c(=O)c3)cc12` [Example 16, (S)-1-(1-(3-chlorophenyl)-2-hydroxyethyl)-4-(3-(1,3-dimethyl-1H-pyrazol-4-yl)-1H-indazol-5-yl)pyridin-2(1H)-one]: the IC50 in assay [1] was 500 to 1000 nM; in assay [2], below 10 nM.
